Entries after “also recorded” stand apart in the source; their conditions may differ.
How the values were obtained:
[1] = tested on: ATGL; assay: Western blot of ATGL level in HepG2 cells; assay type: cell-based; parameters: key to Increase in ATGL level: + = slight or in insignificant; ++ = Moderate; +++ and ++++ = active; +++ and ++++ = active; +++++ = very active; conditions: for Increase in ATGL level: HepG2 cells, score; for Increase in ATGL level / ATGL level in HepG2 cells: western blot; for ATGL level in HepG2 cells: 24 hours, 10 μM screening or 50 nM-5 μM dose dependent
How it was run: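 HepG2 cells were treated with compound 24 h (10 μM screen; 50 nM–5 μM dose series) and lysed. 30 μg protein was western blotted for ATGL, with actin as loading reference. ATGL increase was expressed as percent of the 1.6-fold siCOP1 maximum and plotted against log concentration for EC50.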

[2] = Plasma stability assay; assay type: in vitro ADME, human; conditions: for Mean % remaining at 2 hrs in human Plasma: 1 μM, 37° C., 120 min, LC-MS/MS; for Plasma stability: human plasma, after 2 hours, with respect to Propantheline
Description: 1 mM Stock of test compound was prepared from 10 mM initial stock solution of compounds by diluting 10 μL of 10 mM stock with 90 μL of DMSO. Then 10 μL of 1 mM stock was diluted with 90 µL of DMSO to give 100 μM concentration. The frozen plasma was thawed at room temperature and centrifuged at 1400 rpm at 4° C., for 15 minutes. Approximately […] of the clear supernatant fraction was transferred to a separate tube and was used for the assay. Final working stock of 1 μM was prepared by diluting 3 μL of 100 μM with 297 μL of plasma. Plasma containing the test compound was incubated for 120 min at 37° C. in shaker with 500 rpm. 50 μL of aliquot of sample at 0, 15, 30, 60 and 120 minutes were precipitated with 150 μL of acetonitrile containing internal standard and centrifuged at 4000 rpm at 4° C. for 20 minutes. 120 μL of supernatant was diluted with 120 μL of water and analyzed by LC-MS/MS.

[3] = Lipophilicity assay (octanol/buffer); assay type: physicochemical; conditions: for logD / LogD @ pH 7.4: n-octanol / 10 mM sodium phosphate buffer pH 7.4, LC-UV; for Lipophilicity class from Log D: pH 7.4
Description: 1.56 g NaH2PO4·2H2O was dissolved in 0.5 L water in a 1 L beaker. After adjusting pH to 7.4 using NaOH solution, the volume was made up to 1 L. Equal volumes of sodium phosphate buffer (10 mM, pH 7.4) and n-octanol were added to a separation funnel and mixed thoroughly by shaking and inverting the funnel several times. The two layers were allowed to separate for overnight and then dispensed in two separate glass bottles. 10 mM stock solution was prepared in 100% DMSO and stored at 4° C. 495 μL of organic phase (1-octanol) was added to each well of a 2 mL deep well plate, followed by 495 μL of buffer and 10 μL of test compound was added. The plate was incubated for 3 hr at room temperature on a plate shaker at 500 rpm. After incubation, the samples were allowed to equilibrate for 20 min and then centrifuged at 4000 rpm for 30 min for complete phase separation and analysed by LC-UV.
Log D=Log (area of octanol/area of buffer)

[4] = tested on: HepG2 cells; assay: Confocal microscopy: lipid droplets in oleate induced HepG2 cells; assay type: cell-based; parameters: key to Reduction in Lipid Droplets: + = slight or in insignificant; ++ = Moderate; +++ and ++++ = active; +++ and ++++ = active; +++++ = very active; conditions: oleate induced HepG2 cells, score
Description: To select the compounds capable of inhibiting the ubiquitination of ATGL by COP1 by targeting the VP motif, confocal microscopy was performed with the provided molecules. If the compound was effective in inhibiting the interaction, there would be a reduction in the number of fat droplets in the cells after treatment. […] With this rationale in mind, HepG2 cells were induced to accumulate lipid droplets after treatment with 250 µM of oleate and 10 μM of the specific compounds were added. The potential of the compounds to bring about a reduction in the number of fat droplets was then checked by comparison with oleate induced cells by counting number of droplets of approximately 20 cells from each treatment and calculating the average number of lipid droplets of each cell. The selected compounds were then subjected to dose dependent treatments and the ones which could maintain its potency to reduce fat droplets at lower doses were then selected for western blot analysis. The compound which could reduce the number of fat droplets in the cells are expected to raise the levels of ATGL since they are likely to deter COP1 from ubiquitinating ATGL. This increase will be visible only in the protein level and gene expression is likely to remain unchanged since ubiquitination is a […] modification. Thus, western blot was performed to check ATGL levels in the cells with the selected molecules.
HepG2 cells were plated in confocal dishes (SPL, Genetix Biotech Asia Pvt. Ltd.). The cells were allowed to adhere and divide for 16 hours. 10 μM for initial screening and 10 nM, 20 nM, 50 nM, 100 nM, 200 nM, 500 nM, 1 μM and 5 μM for dose dependent assays of the compounds 9 and 107 were dissolved in DMSO and added to the cells. 250 μM of oleate was used for induction. BSA (Sigma Aldrich) was used as a negative control. Post 24 hours of treatment, media was decanted from the cells and washed with 1×PBS solution to remove any remnant. 200 μl of staining solution containing 200 ng/ml BODIPY (Invitrogen) and 25 µg/ml HOECKST342 (Invitrogen) were added to the cells and incubated at 37° C. for 30 minutes under dark conditions. Cells were washed 3 times with 1×PBS to remove excess stain. FLUOVIEW FV10i (Olympus) was used to visualise the cells.

[5] = Metabolic stability using Human Liver Microsomes; assay type: in vitro ADME; conditions: for % QH (Well stirred model): NADPH, 0-60 min
Description: 1 mM stock solution of test compound was prepared in DMSO and diluted with Acetonitrile:Water (1:1) to get a 100 μM working concentration. 100 mL of Milli Q water was added to K2HPO4 (1.398 g) and KH2PO4 (0.27 g) to get final pH 7.4 solution of potassium phosphate buffer. […] The above mixture was pre incubated for 15 minutes at 37° C. After pre incubation, 32.5 μL of the mixture was added to 17.5 μL of buffer, this was incubated for 60 minutes at 37° C. [60 min Without Cofactor (NADPH)]. 16.25 μL of the pre incubated mixture and 8.75 μL of cofactor was added to 150 μL of acetonitrile containing internal standard [0 min Sample]. 62 μL of cofactor was added to remaining pre incubation mixture [Incubation mixture]. 25 μL of incubation mixture at 0, 5, 15, 30, 60 min and 60 min without cofactor were precipitated with 150 μL of acetonitrile containing internal standard, vortexed and centrifuged at 4000 rpm at 4° C. for 20 minutes. 120 μL of supernatant was diluted with 120 μL of water and analyzed by LC-MS/MS [sample preparation].

Mean % remaining at 2 hrs in human Plasma [2] [%]	Plasma stability [2]	logD [3]	Lipophilicity class from Log D [3]	Structure (SMILES)	Increase in ATGL level [1]	Reduction in Lipid Droplets [4]	further results
48.5	good plasma stability	0.84	hydrophilic	COCCn1c(C2CCCCC2)nc2ccc(NC(=O)Nc3cccc(C(C)=O)c3)cc2c1=O [Compound 123, 1-(3-acetylphenyl)-3-(2-cyclohexyl-3-(2-methoxyethyl)-4-oxo-3,4-dihydroquinazolin-6-yl)urea]	++++	+++	ATGL level in HepG2 cells [1]: increased ATGL level
1.7				CC(C)[N+](C)(CCOC(=O)C1c2ccccc2Oc2ccccc21)C(C)C [Propantheline, reference compound]			
110.3	good plasma stability	2.48	ideal lipophilicity	COCCn1c(-c2ccccn2)nc2ccc(NC(=O)Nc3cccc(C(C)=O)c3)cc2c1=O [Compound 211, 1-(3-acetylphenyl)-3-(3-(2-methoxyethyl)-4-oxo-2-(pyridin-2-yl)-3,4-dihydroquinazolin-6-yl)urea]			EC50 ([1]; fold increase of ATGL by densitometry, as % of 1.6 fold maximum with siCOP1, doses 10-5000 nM, read-out: EC50 (in-vitro)): 199 nM; ATGL level in HepG2 cells [1]: increased ATGL level; Clearance class from % QH [5]: medium clearance; % QH (Well stirred model) [5]: 38.8%
				COCCc1ccc(OCC(O)CNC(C)C)cc1 (centres unmarked) [Metroprolol, reference compound]			LogD @ pH 7.4 [3]: −0.09
				O=c1c(O)c(-c2ccc(O)c(O)c2)oc2cc(O)cc(O)c12 [Quercetin, reference compound]			LogD @ pH 7.4 [3]: 2.81
67.2	good plasma stability	3.01	ideal lipophilicity	CC(=O)c1cccc(NC(=O)Nc2ccc3ncn(CC(=O)Nc4ccccc4F)c(=O)c3c2)c1 [Compound 253, 2-(6-(3-(3-acetylphenyl)ureido)-4-oxoquinazolin-3 (4H)-yl)-N-(2-fluorophenyl)acetamide]	+	++	Clearance class from % QH [5]: lower clearance; % QH (Well stirred model) [5]: 29.8%
				COCCn1cnc2ccc(NC(=O)Nc3cccc(C(=O)N(C)C)c3)cc2c1=O [Compound 17, 3-(3-(3-(2-methoxyethyl)-4-oxo-3,4-dihydroquinazolin-6-yl)ureido)-N,N-dimethylbenzamide]	+++	+++	ATGL level in HepG2 cells [1]: increased ATGL level; also recorded: ability to increase ATGL level
45.8	good plasma stability	1.79	ideal lipophilicity	COCCn1c(C(=O)N2CCCCC2)nc2ccc(NC(=O)Nc3cccc(C(C)=O)c3)cc2c1=O [Compound 330a, 1-(3-acetylphenyl)-3-(3-(2-methoxyethyl)-4-oxo-2-(piperidine-1-carbonyl)-3,4-dihydroquinazolin-6-yl)urea]			Clearance class from % QH [5]: lower clearance; % QH (Well stirred model) [5]: 26.0%
				COCCn1cnc2ccc(NC(=O)Nc3cc(C(=O)OC)ccc3OC)cc2c1=O [Compound 12, methyl 4-methoxy-3-(3-(3-(2-methoxyethyl)-4-oxo-3,4-dihydroquinazolin-6-yl)ureido)benzoate]	+++	++	
				CCOCCn1cnc2ccc(NC(=O)Nc3ccc(C(C)=O)cc3)cc2c1=O [Compound 94, 1-(4-acetylphenyl)-3-(3-(2-ethoxyethyl)-4-oxo-3,4-dihydroquinazolin-6-yl)urea]	+	++	
				CCOC(=O)Cn1cnc2ccc(NC(=O)Nc3cccc(C(C)=O)c3)cc2c1=O [Compound 85, ethyl 2-(6-(3-(3-acetylphenyl)ureido)-4-oxoquinazolin-3 (4H)-yl)acetate]	+	+	
